# In patent publication US20040082602A1, “Substituted thiophene carboxamide compounds for the treatment of inflammation” (priority 2002, published 2004):
# Structures can show the parent of a compound that is named as a salt.
# Target: T1, IKK-2 (Homo sapiens, UniProt O14920)
# T1 construct: made in house; host or cells: baculovirus (pFastBac) in insect cells; SF9
# T1 sequence (O14920 1-756): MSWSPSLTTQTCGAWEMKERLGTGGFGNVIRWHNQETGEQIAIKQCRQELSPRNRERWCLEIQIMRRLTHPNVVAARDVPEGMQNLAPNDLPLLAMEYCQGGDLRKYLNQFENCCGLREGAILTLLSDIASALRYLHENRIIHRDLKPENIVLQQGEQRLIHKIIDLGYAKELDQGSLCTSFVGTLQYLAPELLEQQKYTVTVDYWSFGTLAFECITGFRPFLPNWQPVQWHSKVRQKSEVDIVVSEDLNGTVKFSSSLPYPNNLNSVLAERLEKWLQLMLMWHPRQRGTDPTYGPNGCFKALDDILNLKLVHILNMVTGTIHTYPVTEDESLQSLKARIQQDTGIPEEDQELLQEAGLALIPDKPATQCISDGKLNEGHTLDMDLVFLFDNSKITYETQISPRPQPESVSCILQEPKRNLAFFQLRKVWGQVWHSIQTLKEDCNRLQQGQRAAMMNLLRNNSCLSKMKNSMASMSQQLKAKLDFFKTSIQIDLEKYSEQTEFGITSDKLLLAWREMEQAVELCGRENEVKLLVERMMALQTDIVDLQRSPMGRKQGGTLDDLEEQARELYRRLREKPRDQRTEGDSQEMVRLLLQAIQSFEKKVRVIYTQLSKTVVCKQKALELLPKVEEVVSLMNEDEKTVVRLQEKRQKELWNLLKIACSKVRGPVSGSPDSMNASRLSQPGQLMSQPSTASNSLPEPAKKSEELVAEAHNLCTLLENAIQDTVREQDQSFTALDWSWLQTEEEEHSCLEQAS
# Experiment: IKK-2 Resin assay (IKKβ Resin Enzyme Assay)
# Type: biochemical
# Conditions: rhIKK2 homodimer, 5 μM biotinylated IκBα peptide, 1 μM ATP, 25° C., 30 min
# Text: cDNAs of human IKK1 and IKK2 were amplified by reverse transcriptase-polymerase chain reaction from human placental RNA (Clonetech). hIKK1 was subcloned into pFastBac HTa (Life Technologies) and expressed as N-terminal His6-tagged fusion protein. The hIKK2 cDNA was amplified using a reverse oligonucleotide primer which incorporated the peptide sequence for a FLAG-epitope tag at the C-terminus of the IKK2 coding region (DYKDDDDKD). The hIKK2:FLAG cDNA was subcloned into the baculovirus vector pFastBac. The rhIKK2 ([…]) mutant was constructed in the same vector used for wild type rhIKK2 using a QuikChange™ mutagenesis kit (Stratagene). Viral stocks of each construct were used to infect insect cells grown in 40L suspension culture. […] Cell lysates were stored at −80° C. until purification of the recombinant proteins was undertaken as described below.
# A 10-liter culture of baculovirus-expressing IKK2 tagged with FLAG peptide was centrifuged and the cell pellet (MOI=0.1 and 1=72 hrs) was re-suspended in buffer A. These cells were microfluidized, and centrifuged at 100,000×g for 45 min. Supernatant was passed over a G-25 column equilibrated with Buffer A. Protein peak was collected and incubated with anti-FLAG affinity resin on a rotator overnight in buffer B. The resin was washed in batch with 10-15 bed volumes of buffer C. Washed resin was poured into a column and rhIKK2 homodimer was eluted using 5 bed volumes of buffer B containing FLAG peptide. 5 mM DTT, 0.1% NP-40 and BSA (concentrated to 0.1% in final amount) was added to the eluted enzyme before concentrating in using an Amicon membrane with a molecular weight cut-off of 30 kDa. Enzyme was aliquoted and stored at −80° C.
# IKKβ kinase activity was measured using a biotinylated IκBα peptide (Gly-LeuLys-Lys-Glu-Arg-Leu-Leu-Asp-Asp-Arg-His-Asp-Ser32-Gly-Leu-Asp-Ser36-Met Lys-Asp-Glu-Glu) (American Peptide Co.). 20 ul of the standard reaction mixture contained 5 μM biotinylated IκBα peptide, 0.1 μCi/reaction [γ^33P] ATP (Amersham) (about 1×10^5 cpm), 1 μM ATP (Sigma), 1 mM DTT (Sigma), 2 mM MgCl2 (Sigma), 2 mM MnCl2 (Sigma), 10 mM NaF (Sigma), 25 mM Hepes (Sigma) buffer, pH 7.6 and 20 μl enzyme solution and 10 ul inhibitor in a final volume of […]. After incubation at 25° C. for 30 min, 150 μl resin (Dowex anion-exchange resin AGIX8 200-400 mesh) in 900 mM formate, pH 3.0 was added to each well to stop the reaction. Resin was allowed to settle for one hour and 50 ul of supernatant was removed to a Micolite-2 flat bottom plate (Dynex). 150 μl of scintillation fluid (Microscint 40) (Packard) was added to each well. Incorporation of [γ-^33P] ATP was measured using a Top-Count NXT (Packard).
row,Compound,IC50 [µM]
1,"NC(=O)c1sc2c(c1N)CCc1ccccc1-2 [Example 1, 3-amino-4,5-dihydronaphtho[1,2-b]thiophene-2-carboxamide]",10 to 20
2,"COc1ccc2c(c1)-c1sc(C(N)=O)c(N)c1CC2 [Example 2, 3-amino-8-methoxy-4,5-dihydronaphtho[1,2-b]thiophene-2-carboxamide]",1 to 10
3,"NCCNc1c(C(N)=O)sc2c1CCc1ccccc1-2 [Example 3, 3-[(2-aminoethyl)amino]-4,5-dihydronaphtho[1,2-b]thiophene-2-carboxamide hydrobromide]",1 to 10
4,"NCCCNc1c(C(N)=O)sc2c1CCc1ccccc1-2 [Example 4, 3-[(3-aminopropyl)amino]-4,5-dihydronaphtho[1,2-b]thiophene-2-carboxamide hydrochloride]",10 to 20
5,"NC(=O)Nc1c(C(N)=O)sc2c1CCc1ccccc1-2 [Example 5, 3-[(aminocarbonyl)amino]4,5-dihydronaphtho[1,2-b]thiophene-2-carboxamide]",10 to 20
6,"N#Cc1c(N)sc2c1CCc1ccccc1-2 [Example 6, 2-amino-4,5-dihydronaphtho[1,2-b]thiophene-3-carbonitrile]",10 to 20
7,"CC(=O)Nc1sc2c(c1C(N)=O)CCc1ccccc1-2 [Example 7, 2-(acetylamino)-4,5-dihydronaphtho[1,2-b]thiophene-3-carboxamide]",10 to 20
8,"NC(=O)Nc1sc2c(c1C(N)=O)CCc1ccccc1-2 [Example 8, 2-[(aminocarbonyl)amino]-4,5-dihydronaphtho[1,2-b]thiophene-3-carboxamide]",≤ 1
